Laboratory results: US12453769B2 (priority 2019, dated 2025)

Tested on: gE-specific IFN-γ
Parameters: species or system C57BL/6(N) mice
Settings: mouse, in vivo

Which “induced production level of gE-specific IFN-γ (ELISPOT spot)” value does the source give for QS-21 here?
The value was “the best effect”.
